Assay results from patent US20170030891A1, “BLOOD CONDITION ANALYSIS DEVICE, BLOOD CONDITION ANALYSIS SYSTEM, BLOOD CONDITION ANALYSIS METHOD, AND PROGRAM” (SONY CORPORATION, priority 2014, published 2017).

Legend:
platelet factors = assay: time-dependent changes in real part of complex permittivity of blood samples having different CyD concentrations at 10 MHz; type: cell-based
Description: The electrical characteristic measurement device 10 includes a measurement unit that applies a voltage between a pair of electrodes provided in a sample container filled with a blood sample to be evaluated, and measures the electrical characteristics of the blood sample over time at a specific frequency or frequency band. Examples of electrical characteristics measured by the electrical characteristic measurement device 10 include the impedance, conductance, admittance, capacitance, permittivity, conductivity, and phase angle, as well as amounts obtained by converting them into the amounts of electricity. Incidentally, the blood condition analysis system 1 of this embodiment can perform evaluation from at least one kind of these electrical characteristics, but may also utilize two or more kinds of electrical characteristics.
In the measurement step S1, the electrical characteristics of two or more blood samples adjusted from one blood specimen and having different drug types or concentrations are measured over time at a specific frequency or frequency band. At this time, the conditions for the electrical characteristic measurement are not particularly limited, and may be suitably set according to the kind of electrical characteristics and the like within a range where the blood to be evaluated is not deteriorated.
In the analysis step S2, utilizing data of time-dependent changes in the electrical characteristics measured by the electrical characteristic measurement device 10, the influence of the drug or a factor in the blood on the coagulation system or fibrinolysis system of the blood is evaluated by the blood condition analysis device 11. For example, from data of time-dependent changes in the electrical characteristic of each blood sample, parameters conventionally used for the evaluation of the coagulation system or fibrinolysis system of blood are calculated. […]
In addition, for example, in the case where the coagulation system is evaluated, examples of coagulation factors to be evaluated include platelet factors and fibrinogen. […]

platelets = assay: Example 1: complex permittivity in the process of coagulation of blood with CyD or Pefabloc at various concentrations; type: cell-based; conditions: sample with Pefabloc concentration 0%, FIG. 24; addition of 8 μl of CyD to 180 μl of blood; blood from a healthy individual
Experimental: (§1) Hereinafter, the effects of the present disclosure will be described in detail. In this example, CyD or Pefabloc was added at various concentrations to a blood sample collected from a healthy individual, and changes in the complex permittivity in the process of coagulation were measured.
(§2) As shown in the following Mathematical Formula 1, the clot firmness CF depends on the effective concentration of platelets PLT and the effective concentration of fibrinogen FIB. Incidentally, a, b, and c in the following Mathematical Formula 1 are parameters determined by measurement.
(§3) Here, by applying the analysis method shown in FIG. 8 to the data of a sample having a Pefabloc concentration of 0% shown in FIG. 24, it can be estimated that the CyD concentration at which the contribution of platelets disappears is 3.4 μg/ml (the addition of 8 μl of CyD to 180 μl of blood). As a result, the effective concentration of platelets (142000/μl) can be determined. In a similar manner, the amount of fibrinogen can be determined using the data of a sample having a CyD concentration of 0% shown in FIG. 25.

fibrinogen [1] = molecular target: T1, fibrinogen (Homo sapiens, UniProt P02675+P02679); assay: coagulation amplitude and coagulation time of blood samples vs fibrinogen inhibitor (Pefabloc) concentration; conditions: relation to Pefabloc concentration, FIG. 15A and 15B
T1 construct: from tissue; host or cells: blood sample (donor not described)
T1 sequence (P02671 20-629 partner limits assumed): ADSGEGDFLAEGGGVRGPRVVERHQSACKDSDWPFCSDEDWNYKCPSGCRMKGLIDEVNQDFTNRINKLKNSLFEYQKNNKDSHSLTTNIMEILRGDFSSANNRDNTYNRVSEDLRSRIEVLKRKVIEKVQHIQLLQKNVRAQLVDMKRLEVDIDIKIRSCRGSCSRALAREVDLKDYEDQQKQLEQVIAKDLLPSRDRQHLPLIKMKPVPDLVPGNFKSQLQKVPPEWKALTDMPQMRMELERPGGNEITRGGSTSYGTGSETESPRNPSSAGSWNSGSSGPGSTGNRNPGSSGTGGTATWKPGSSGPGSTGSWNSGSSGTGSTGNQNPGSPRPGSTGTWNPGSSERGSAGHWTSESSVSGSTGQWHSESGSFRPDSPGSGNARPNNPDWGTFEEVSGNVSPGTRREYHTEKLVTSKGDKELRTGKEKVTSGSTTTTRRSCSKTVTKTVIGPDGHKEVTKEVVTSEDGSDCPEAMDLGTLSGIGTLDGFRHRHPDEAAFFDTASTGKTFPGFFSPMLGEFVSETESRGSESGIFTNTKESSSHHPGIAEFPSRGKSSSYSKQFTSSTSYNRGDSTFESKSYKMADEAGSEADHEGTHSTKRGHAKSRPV
T1 sequence (P02675 31-491): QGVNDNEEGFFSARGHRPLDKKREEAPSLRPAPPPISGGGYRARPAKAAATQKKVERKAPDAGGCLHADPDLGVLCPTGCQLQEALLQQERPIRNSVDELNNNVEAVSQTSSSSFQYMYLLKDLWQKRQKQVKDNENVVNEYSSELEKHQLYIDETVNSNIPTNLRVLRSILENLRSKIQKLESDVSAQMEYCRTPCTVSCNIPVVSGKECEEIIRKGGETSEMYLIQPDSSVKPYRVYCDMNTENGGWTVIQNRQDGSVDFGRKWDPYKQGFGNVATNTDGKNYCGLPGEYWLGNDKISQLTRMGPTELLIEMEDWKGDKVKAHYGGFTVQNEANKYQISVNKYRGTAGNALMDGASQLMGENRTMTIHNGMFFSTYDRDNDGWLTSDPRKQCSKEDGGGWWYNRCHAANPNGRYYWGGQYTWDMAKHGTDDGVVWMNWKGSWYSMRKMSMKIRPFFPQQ
T1 sequence (P02679 27-433 limits assumed): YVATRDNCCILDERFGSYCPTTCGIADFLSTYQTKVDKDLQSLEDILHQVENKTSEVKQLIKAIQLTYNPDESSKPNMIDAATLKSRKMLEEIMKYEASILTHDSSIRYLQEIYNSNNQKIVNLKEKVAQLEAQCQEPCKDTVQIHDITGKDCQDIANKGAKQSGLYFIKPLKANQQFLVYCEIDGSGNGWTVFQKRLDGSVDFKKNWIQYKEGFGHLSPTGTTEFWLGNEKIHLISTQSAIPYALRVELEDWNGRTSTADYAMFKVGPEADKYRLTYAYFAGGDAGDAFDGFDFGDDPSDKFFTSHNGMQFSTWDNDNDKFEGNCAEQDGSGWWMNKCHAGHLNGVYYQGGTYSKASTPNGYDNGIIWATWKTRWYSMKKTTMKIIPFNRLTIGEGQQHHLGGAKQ
Description: Further, by using a fibrinogen inhibitor, such as Pefabloc, as the drug, the influence of fibrinogen can also be evaluated. FIG. 15A is a diagram showing the relation between the fibrinogen inhibitor (Pefabloc) concentration and the coagulation amplitude, while FIG. 15B is a diagram showing the relation with the coagulation time. […] Thus, utilizing this characteristic, the influence of fibrinogen can be evaluated, or the amount of fibrinogen can be estimated.

fibrinogen [2] = molecular target: T1, fibrinogen; assay: Example 1: complex permittivity in the process of coagulation of blood with CyD or Pefabloc at various concentrations; conditions: from PFG concentration dependence at CyD concentration 0, FIG. 25; blood from a healthy individual
Experimental: as §1, §2, §3
Then, the effective concentration of platelets PLT can be estimated from data of CyD concentration dependence. In addition, the effective concentration of fibrinogen FIB can be estimated from data of PFG concentration dependence. […]

[3] = test system: fibrinolysis system of the blood; assay: complex permittivity at 10 MHz of blood samples with fibrinolysis system promotor (tPA) and inhibitor (aprotinin); conditions: aprotinin added to blood with tPA, 10 MHz, FIG. 10
Experimental: In addition, for example, in the case where the fibrinolysis system is evaluated, examples of coagulation factors to be evaluated include plasminogen and plasmin. In that case, as a drug to be added to the blood sample, an activator or inhibitor of plasminogen or plasmin is usable. FIG. 9 is a diagram showing time-dependent changes in the real part (∈′) of the complex permittivity at 10 MHz of blood samples having different fibrinolysis system promotor (tPA) and fibrinolysis system inhibitor (aprotinin) concentrations.
For the evaluation of the fibrinolysis-system blood, for example, a value obtained by dividing the amplitude after 30 minutes from the time B shown in FIGS. 2A-2B by the amplitude at the time B (LI30: the source of clot firmness after a predetermined period of time from the maximum firmness accompanying fibrinolysis) can be used as an evaluation parameter.

blood coagulation = assay: complex permittivity at 10 MHz of blood samples having different heparin concentrations; conditions: relation to heparin concentration, FIG. 12
Experimental: The blood condition analysis method of this embodiment is not limited to the evaluation criteria and evaluation methods described above. For example, it is also possible that heparin is used as the drug, and the suppressing effect of heparin on blood coagulation is evaluated. FIG. 11 is a diagram showing time-dependent changes in the real part (∈′) of the complex permittivity of blood samples having different heparin concentrations at 10 MHz, and FIG. 12 is a diagram showing the relation between the clotting time determined from the values of ∈′ at 10 MHz shown in FIG. 11 and the heparin concentration. In addition, FIG. 13 is a diagram showing the coagulation curves of blood samples having different heparin concentrations, and FIG. 14 is a diagram showing the relation between the heparin concentration and the difference in clotting time.

## C=C1[C@@H](C)[C@H]2[C@H](Cc3ccccc3)NC(=O)[C@]23[C@H](OC(C)=O)/C=C/[C@@](C)(O)C(=O)[C@@H](C)C/C=C/[C@H]3[C@@H]1O [CyD, cytochalasin D]
Platelet factors; blood sample of FIG. 8, number of platelets 136500 per 1 μl
  amount of CyD for inhibiting the platelet factors: 25 ng per platelet
Platelet factors; from coagulation rate vs CyD concentration (FIG. 8), agrees with coagulation rate of blood sample containing excess CyD
  minimum drug dose to completely suppress the action of platelet factors: 3.3 µg/mL
Platelet factors; relation to CyD concentration, FIG. 7 and FIG. 8
  coagulation amplitude and coagulation rate determined from the real part of the complex permittivity: correlated with the CyD concentration
platelets
  CyD concentration at which the contribution of platelets disappears: 3.4 µg/mL

## H-Gly-Pro-Arg-Pro-OH×AcOH (H-GPRP-OH; also: acetate salt) [Pefabloc, fibrinogen function suppressor]
Fibrinogen [1]
  coagulation amplitude and clotting time: the coagulation amplitude and the clotting time change with an increase in the fibrinogen inhibitor (Pefabloc) concentration
Fibrinogen [2]
  effective concentration of fibrinogen FIB (equivalent PFG): 1000 µg/mL

## aprotinin
[3]
  LI30 (amplitude after 30 minutes from time B divided by amplitude at time B): turns back to the value of the control blood sample

## heparin
Blood coagulation
  clotting time determined from ∈′ at 10 MHz: the clotting time increases with an increase in the heparin concentration
